PubChem BioAssay AID1259407 (Chemical Carcinogenesis Research Information System (CCRIS), 2018)
The source made the active and inactive calls. How the calls were made is not given here.

System: CCRIS mutagenicity, Ames/micronucleus/aberration tests
Test: CCRIS mutagenicity studies
[1] = Test System: AMES SALMONELLA TYPHIMURIUM, Strain/Indicator: TA98, Metabolic Activation: NONE, Method: PREINCUBATION
[2] = Test System: AMES SALMONELLA TYPHIMURIUM, Strain/Indicator: TA100, Metabolic Activation: NONE, Method: PREINCUBATION
[3] = Test System: AMES SALMONELLA TYPHIMURIUM, Strain/Indicator: TA98, Metabolic Activation: NONE, Method: STANDARD PLATE
[4] = Test System: AMES SALMONELLA TYPHIMURIUM, Strain/Indicator: TA98, Metabolic Activation: RAT, LIVER, S-9, AROCLOR 1254, Method: STANDARD PLATE
[5] = Test System: AMES SALMONELLA TYPHIMURIUM, Strain/Indicator: TA100, Metabolic Activation: NONE, Method: STANDARD PLATE
[6] = Test System: AMES SALMONELLA TYPHIMURIUM, Strain/Indicator: TA100, Metabolic Activation: RAT, LIVER, S-9, AROCLOR 1254, Method: STANDARD PLATE
[7] = Test System: AMES SALMONELLA TYPHIMURIUM, Strain/Indicator: TA1535, Metabolic Activation: NONE, Method: STANDARD PLATE
[8] = Test System: AMES SALMONELLA TYPHIMURIUM, Strain/Indicator: TA1535, Metabolic Activation: RAT, LIVER, S-9, AROCLOR 1254, Method: STANDARD PLATE
[9] = Test System: AMES SALMONELLA TYPHIMURIUM, Strain/Indicator: TA1537, Metabolic Activation: NONE, Method: STANDARD PLATE
[10] = Test System: AMES SALMONELLA TYPHIMURIUM, Strain/Indicator: TA1537, Metabolic Activation: RAT, LIVER, S-9, AROCLOR 1254, Method: STANDARD PLATE
[11] = Test System: AMES SALMONELLA TYPHIMURIUM, Strain/Indicator: TA1538, Metabolic Activation: NONE, Method: STANDARD PLATE
[12] = Test System: AMES SALMONELLA TYPHIMURIUM, Strain/Indicator: TA1538, Metabolic Activation: RAT, LIVER, S-9, AROCLOR 1254, Method: STANDARD PLATE

**Q.** What does the source list for `[Ga]#[As]`?
**A.** mutagenic call (Test System: AMES SALMONELLA TYPHIMURIUM, Strain/Indicator: TA97, Metabolic Activation: HAMSTER, LIVER, S-9, AROCLOR 1254 (10 OR 30%), Method: PREINCUBATION): inactive; negative; mutagenic call (Test System: AMES SALMONELLA TYPHIMURIUM, Strain/Indicator: TA97, Metabolic Activation: NONE, Method: PREINCUBATION): inactive; negative; mutagenic call (Test System: AMES SALMONELLA TYPHIMURIUM, Strain/Indicator: TA97, Metabolic Activation: RAT, LIVER, S-9, AROCLOR 1254 (10 OR 30%), Method: PREINCUBATION): inactive; negative; mutagenic call (Test System: AMES SALMONELLA TYPHIMURIUM, Strain/Indicator: TA98, Metabolic Activation: HAMSTER, LIVER, S-9, AROCLOR 1254 (10%), Method: PREINCUBATION): inactive; negative; mutagenic call (Test System: AMES SALMONELLA TYPHIMURIUM, Strain/Indicator: TA98, Metabolic Activation: HAMSTER, LIVER, S-9, AROCLOR 1254 (30%), Method: PREINCUBATION): inactive; negative; mutagenic call [1]: inactive; negative; mutagenic call (Test System: AMES SALMONELLA TYPHIMURIUM, Strain/Indicator: TA98, Metabolic Activation: RAT, LIVER, S-9, AROCLOR 1254 (10%), Method: PREINCUBATION): inactive; negative; mutagenic call (Test System: AMES SALMONELLA TYPHIMURIUM, Strain/Indicator: TA98, Metabolic Activation: RAT, LIVER, S-9, AROCLOR 1254 (30%), Method: PREINCUBATION): inactive; negative; mutagenic call (Test System: AMES SALMONELLA TYPHIMURIUM, Strain/Indicator: TA100, Metabolic Activation: HAMSTER, LIVER, S-9, AROCLOR 1254 (10%), Method: PREINCUBATION): inactive; negative; mutagenic call (Test System: AMES SALMONELLA TYPHIMURIUM, Strain/Indicator: TA100, Metabolic Activation: HAMSTER, LIVER, S-9, AROCLOR 1254 (30%), Method: PREINCUBATION): inactive; negative; mutagenic call [2]: inactive; negative; mutagenic call (Test System: AMES SALMONELLA TYPHIMURIUM, Strain/Indicator: TA100, Metabolic Activation: RAT, LIVER, S-9, AROCLOR 1254 (10%), Method: PREINCUBATION): inactive; negative; mutagenic call (Test System: AMES SALMONELLA TYPHIMURIUM, Strain/Indicator: TA100, Metabolic Activation: RAT, LIVER, S-9, AROCLOR 1254 (30%), Method: PREINCUBATION): inactive; negative; mutagenic call (Test System: AMES SALMONELLA TYPHIMURIUM, Strain/Indicator: TA102, Metabolic Activation: HAMSTER, LIVER, S-9, AROCLOR 1254 (5 OR 10%), Method: PREINCUBATION): inactive; negative; mutagenic call (Test System: AMES SALMONELLA TYPHIMURIUM, Strain/Indicator: TA102, Metabolic Activation: HAMSTER, LIVER, S-9, AROCLOR 1254 (30%), Method: PREINCUBATION): inactive; negative; mutagenic call (Test System: AMES SALMONELLA TYPHIMURIUM, Strain/Indicator: TA102, Metabolic Activation: NONE, Method: PREINCUBATION): inactive; negative; mutagenic call (Test System: AMES SALMONELLA TYPHIMURIUM, Strain/Indicator: TA102, Metabolic Activation: RAT, LIVER, S-9, AROCLOR 1254 (10%), Method: PREINCUBATION): inactive; negative; mutagenic call (Test System: AMES SALMONELLA TYPHIMURIUM, Strain/Indicator: TA102, Metabolic Activation: RAT, LIVER, S-9, AROCLOR 1254 (30%), Method: PREINCUBATION): inactive; negative; mutagenic call (Test System: AMES SALMONELLA TYPHIMURIUM, Strain/Indicator: TA1535, Metabolic Activation: HAMSTER, LIVER, S-9, AROCLOR 1254 (10%), Method: PREINCUBATION): inactive; negative; mutagenic call (Test System: AMES SALMONELLA TYPHIMURIUM, Strain/Indicator: TA1535, Metabolic Activation: HAMSTER, LIVER, S-9, AROCLOR 1254 (30%), Method: PREINCUBATION): inactive; negative; mutagenic call (Test System: AMES SALMONELLA TYPHIMURIUM, Strain/Indicator: TA1535, Metabolic Activation: NONE, Method: PREINCUBATION): inactive; negative; mutagenic call (Test System: AMES SALMONELLA TYPHIMURIUM, Strain/Indicator: TA1535, Metabolic Activation: RAT, LIVER, S-9, AROCLOR 1254 (10%), Method: PREINCUBATION): inactive; negative; mutagenic call (Test System: AMES SALMONELLA TYPHIMURIUM, Strain/Indicator: TA1535, Metabolic Activation: RAT, LIVER, S-9, AROCLOR 1254 (30%), Method: PREINCUBATION): inactive; negative

**Q.** For `Cc1cc(N)c([N+](=O)[O-])c(C)c1N`, which mutagenic call [3] is on record?
**A.** inactive; negative

**Q.** What about the mutagenic call [4] of the same molecule?
**A.** inactive; negative

**Q.** What about the mutagenic call [5] of the same molecule?
**A.** inactive; negative

**Q.** And the mutagenic call [6]?
**A.** inactive; negative

**Q.** What about the mutagenic call [7] of the same molecule?
**A.** inactive; negative

**Q.** And the mutagenic call [8]?
**A.** inactive; negative

**Q.** What about the mutagenic call [9] of the same molecule?
**A.** inactive; negative

**Q.** What about the mutagenic call [10] of the same molecule?
**A.** inactive; negative

**Q.** And the mutagenic call [11]?
**A.** inactive; negative

**Q.** What about the mutagenic call [12] of the same molecule?
**A.** inactive; negative

**Q.** What does the source list for `CC(C)(Cl)Cl`?
**A.** mutagenic call (Test System: AMES SALMONELLA TYPHIMURIUM, Strain/Indicator: GSTT1, Metabolic Activation: RAT, LIVER, S-9, AROCLOR 1254, Method: STANDARD PLATE): inactive; negative; mutagenic call (Test System: AMES SALMONELLA TYPHIMURIUM, Strain/Indicator: RSJ100, Metabolic Activation: NONE, Method: STANDARD PLATE): inactive; negative; mutagenic call [3]: inactive; negative; mutagenic call [4]: inactive; negative; mutagenic call [5]: inactive; negative; mutagenic call [6]: inactive; negative; mutagenic call (Test System: AMES SALMONELLA TYPHIMURIUM, Strain/Indicator: TA104, Metabolic Activation: NONE, Method: STANDARD PLATE): inactive; negative; mutagenic call (Test System: AMES SALMONELLA TYPHIMURIUM, Strain/Indicator: TA104, Metabolic Activation: RAT, LIVER, S-9, AROCLOR 1254, Method: STANDARD PLATE): inactive; negative; mutagenic call [7]: inactive; negative; mutagenic call [8]: inactive; negative

**Q.** For `CC12OOC1(CO)Oc1ccccc12` (stereo not given), which mutagenic call [2] is on record?
**A.** inactive; negative

**Q.** Which results are given for `C#C[C@]1(O)CC[C@H]2[C@@H]3CCC4=C(CCC(=O)C4)[C@H]3CC[C@@]21C`?
**A.** mutagenic call (End Point: IN VITRO CHROMOSOMAL ABERRATIONS, Test System: HUMAN PERIPHERAL LYMPHOCYTES, Metabolic Activation: NONE): inactive; negative; mutagenic call (End Point: IN VITRO CHROMOSOMAL ABERRATIONS, Test System: HUMAN PERIPHERAL LYMPHOCYTES, Metabolic Activation: RAT, LIVER, S-9, PHENOBARBITONE): active; positive (structural changes); mutagenic call (Test System: AMES SALMONELLA TYPHIMURIUM, Strain/Indicator: TA98, Metabolic Activation: MOUSE, LIVER, S-9, Method: STANDARD PLATE): inactive; negative; mutagenic call [3]: inactive; negative; mutagenic call [4]: inactive; negative; mutagenic call (Test System: AMES SALMONELLA TYPHIMURIUM, Strain/Indicator: TA100, Metabolic Activation: MOUSE, LIVER, S-9, Method: STANDARD PLATE): inactive; negative; mutagenic call [5]: inactive; negative; mutagenic call [6]: inactive; negative; mutagenic call (Test System: AMES SALMONELLA TYPHIMURIUM, Strain/Indicator: TA1535, Metabolic Activation: MOUSE, LIVER, S-9, Method: STANDARD PLATE): inactive; negative; mutagenic call [7]: inactive; negative; mutagenic call [8]: inactive; negative; mutagenic call (Test System: AMES SALMONELLA TYPHIMURIUM, Strain/Indicator: TA1537, Metabolic Activation: MOUSE, LIVER, S-9, Method: STANDARD PLATE): inactive; negative; mutagenic call [9]: inactive; negative; mutagenic call [10]: inactive; negative; mutagenic call (Test System: AMES SALMONELLA TYPHIMURIUM, Strain/Indicator: TA1538, Metabolic Activation: MOUSE, LIVER, S-9, Method: STANDARD PLATE): inactive; negative; mutagenic call [11]: inactive; negative; mutagenic call [12]: inactive; negative

**Q.** Which mutagenic call [9] does the source give for `[N-]=[N+]=Nc1ccc(Nc2c3ccccc3nc3ccccc23)cc1` here?
**A.** active; positive

**Q.** `O=C(O)C=C(C(Cl)Cl)C(Cl)Cl` was tested. Which mutagenic call [1] did it give?
**A.** inactive; negative

**Q.** And the mutagenic call [2]?
**A.** active; positive

**Q.** And the mutagenic call (Test System: AMES SALMONELLA TYPHIMURIUM, Strain/Indicator: TA104, Metabolic Activation: NONE, Method: PREINCUBATION)?
**A.** inactive; negative
